Measured values reported in PubChem BioAssay AID330 (DTP/NCI, 2004).
Several values for one entry are separate records, joined by “and”; a condition that tells them apart may be missing. Equal entries are not always repeated. Toxic doses and inconclusive results are not listed.

Test system: P388 leukemia ip, CD2F1 mice, survival T/C
Test: NCI In Vivo Anticancer Drug Screen. Data for tumor model P388 Leukemia (intraperitoneal) in CD2F1 (CDF1) mice
Settings: endpoint: median survival time, higher = longer survival
Summary of the method: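 Mice carrying the transplanted tumor received test compound or vehicle. Survival was recorded in each group, and the value is the treated-group measurement divided by that of the vehicle-treated control group.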

[1] = dose: 50.0 mg/kg/injection, schedule: Q01DX005 (ip), vehicle: Klucel (hydroxypropylcellulose) (HPC)
[2] = dose: 100.0 mg/kg/injection, schedule: Q01DX005 (ip), vehicle: Klucel (hydroxypropylcellulose) (HPC)
[3] = dose: 200.0 mg/kg/injection, schedule: Q01DX005 (ip), vehicle: Klucel (hydroxypropylcellulose) (HPC)
[4] = dose: 60.0 mg/kg/injection, schedule: Q01DX005 (ip), vehicle: saline with Tween-80

## CCc1nc(N)nc(N)c1-c1ccc(NCCc2ccccc2)c([N+](=O)[O-])c1
[1]
  T/C: 101 % of control
[2]
  T/C: 113 % of control and 124 % of control
[3]
  T/C: 162 % of control
dose: 400.0 mg/kg/injection, schedule: Q01DX005 (ip), vehicle: Klucel (hydroxypropylcellulose) (HPC)
  T/C: 98 % of control

## CCOC(=O)/C=C/C(=O)NNS(=O)(=O)CC(N)C(=O)O (stereo not given)
dose: 100.0 mg/kg/injection, schedule: Q04DX003 (ip), vehicle: acid diluted with saline
  T/C: 105 % of control
dose: 200.0 mg/kg/injection, schedule: Q04DX003 (ip), vehicle: acid diluted with saline
  T/C: 109 % of control

## CCn1c(=O)c2[nH]c(SC)nc2n(CC)c1=O
dose: 16.0 mg/kg/injection, schedule: Q01DX009 (ip), vehicle: Klucel (hydroxypropylcellulose) (HPC)
  T/C: 105 % of control
dose: 32.0 mg/kg/injection, schedule: Q01DX009 (ip), vehicle: Klucel (hydroxypropylcellulose) (HPC)
  T/C: 107 % of control
dose: 50.0 mg/kg/injection, schedule: Q01DX009 (ip), vehicle: Klucel (hydroxypropylcellulose) (HPC)
  T/C: 116 % of control
dose: 64.0 mg/kg/injection, schedule: Q01DX009 (ip), vehicle: Klucel (hydroxypropylcellulose) (HPC)
  T/C: 104 % of control
dose: 100.0 mg/kg/injection, schedule: Q01DX009 (ip), vehicle: Klucel (hydroxypropylcellulose) (HPC)
  T/C: 111 % of control
dose: 200.0 mg/kg/injection, schedule: Q01DX009 (ip), vehicle: Klucel (hydroxypropylcellulose) (HPC)
  T/C: 100 % of control

## COc1ccc(N=N/N=c2\sc3cc(OC)ccc3n2C)cc1
dose: 7.5 mg/kg/injection, schedule: Q01DX005 (ip), vehicle: saline with Tween-80
  T/C: 113 % of control
dose: 15.0 mg/kg/injection, schedule: Q01DX005 (ip), vehicle: saline with Tween-80
  T/C: 104 % of control
dose: 30.0 mg/kg/injection, schedule: Q01DX005 (ip), vehicle: saline with Tween-80
  T/C: 112 % of control and 117 % of control
[4]
  T/C: 104 % of control

## Cc1c([N+](=O)[O-])cc(N)cc1S(=O)(=O)O
[1]
  T/C: 96 % of control
[2]
  T/C: 96 % of control
[3]
  T/C: 93 % of control

## COC(=O)C1(OC(C)=O)C(=O)NC2=C1C(=O)c1ccccc1C2=O (stereo not given)
dose: 12.5 mg/kg/injection, schedule: Q01DX005 (ip), vehicle: saline with Tween-80
  T/C: 102 % of control
dose: 25.0 mg/kg/injection, schedule: Q01DX005 (ip), vehicle: saline with Tween-80
  T/C: 104 % of control
dose: 50.0 mg/kg/injection, schedule: Q01DX005 (ip), vehicle: saline with Tween-80
  T/C: 110 % of control and 113 % of control

## CCN(CC)CCOCCOC1CC2CCC1(C)C2(C)C (stereo not given)
dose: 50.0 mg/kg/injection, schedule: Q01DX005 (ip), vehicle: saline
  T/C: 99 % of control
dose: 100.0 mg/kg/injection, schedule: Q01DX005 (ip), vehicle: saline
  T/C: 96 % of control

## CCCc1c2cc(OC)c(OC)cc2cc2c3cc(OC)c(OC)cc3cc[n+]12 (tested in a mixture with another compound)
dose: 25.0 mg/kg/injection, schedule: Q01DX009 (ip), vehicle: saline with Tween-80
  T/C: 102 % of control
dose: 50.0 mg/kg/injection, schedule: Q01DX009 (ip), vehicle: saline with Tween-80
  T/C: 111 % of control
dose: 100.0 mg/kg/injection, schedule: Q01DX009 (ip), vehicle: saline with Tween-80
  T/C: 109 % of control

## C1=CCONC1
dose: 50.0 mg/kg/injection, schedule: Q04DX003 (ip), vehicle: saline
  T/C: 93 % of control
dose: 100.0 mg/kg/injection, schedule: Q04DX003 (ip), vehicle: saline
  T/C: 104 % of control
dose: 200.0 mg/kg/injection, schedule: Q04DX003 (ip), vehicle: saline
  T/C: 92 % of control

## O=C(/C=C/c1c[nH]c2ccccc12)c1ccccc1O
[4]
  T/C: 98 % of control
dose: 120.0 mg/kg/injection, schedule: Q01DX005 (ip), vehicle: saline with Tween-80
  T/C: 90 % of control
dose: 240.0 mg/kg/injection, schedule: Q01DX005 (ip), vehicle: saline with Tween-80
  T/C: 98 % of control

## Cn1c(=O)c2nc(-c3ccccn3)cnc2n(C)c1=O
dose: 25.0 mg/kg/injection, schedule: Q01DX001 (ip), vehicle: Klucel (hydroxypropylcellulose) (HPC)
  T/C: 116 % of control
dose: 50.0 mg/kg/injection, schedule: Q01DX001 (ip), vehicle: Klucel (hydroxypropylcellulose) (HPC)
  T/C: 106 % of control
dose: 100.0 mg/kg/injection, schedule: Q01DX001 (ip), vehicle: Klucel (hydroxypropylcellulose) (HPC)
  T/C: 100 % of control and 122 % of control and 92 % of control
dose: 200.0 mg/kg/injection, schedule: Q01DX001 (ip), vehicle: Klucel (hydroxypropylcellulose) (HPC)
  T/C: 95 % of control (2×) and 96 % of control
dose: 400.0 mg/kg/injection, schedule: Q01DX001 (ip), vehicle: Klucel (hydroxypropylcellulose) (HPC)
  T/C: 94 % of control and 95 % of control

## O=C(O)C(=O)O.O=C([O-])C(=O)O.O=C([O-])C(=O)O.O=C([O-])C(=O)[O-].[K+].[U]
dose: 1.56 mg/kg/injection, schedule: Q01DX009 (ip), vehicle: saline
  T/C: 100 % of control
dose: 3.13 mg/kg/injection, schedule: Q01DX009 (ip), vehicle: saline
  T/C: 100 % of control
